# In patent US7105529B2, “Substituted oxindole derivatives as protein tyrosine and as protein serine/threonine kinase inhibitors and compositions and methods of treating chemotherapy and radiation therapy side effects” (SmithKline Beecham Corporation, priority 1997, dated 2006):
# Columns and labels:
# [1] = test system: RKO colon adenocarcinoma cells; assay: FACS assay (cell death), RKO; assay type: cell-based; conditions: Homo sapiens; 50% cell death, 72 h
# Protocol: (§1) These assays allow determination of both cell death and changes in cell cycle profile in cells following treatment of the compound. The assay is performend as follows: • 1. Cells are incubated in DMEM to which 10% FCS has been added in a humidified incubator at 37° C. and 5% by volume of CO2 in air. The cells are innoculated in 6-well plates at a density of 0.5–5×10^5 cells per well. • 2. The test compound is added in serial dilutions 24–36 h after plating in 0.5% DMSO. The plates are then incubated a further 72 h in the presence of the compound. During this time, cells in control cultures undergo at least three cell divisions. • 3. After incubation, the media is collected and cells are harvested by trypsinization. The cells and media are pooled and pelleted by centrifugation. • 4. The cell pellet is fixed in a final volume of 3 mL of 50% ice cold MeOH and incubated for a minimum of 30 min at −20° C. • 5. The cells are pelleted by centrifugation and resuspended in 0.5 mL PBS containing 1%FCS, […] Propidium Iodide (PI) and […] RNase A and incubated 30 min at 37° C. in the dark. • 6. The samples are analysed by flow cytometry using the relative incorporation of PI as a measure of DNA content of each cell. The % Dead cells is recorded as % of events with less than 2N DNA. […] HDF are normal diploid fibroblast cells. […]
# MES/SA cells = assay: FACS assay (cell death), MES/SA; assay type: cell-based; conditions: Homo sapiens, 50% cell death, 72 h
# Protocol: as §1
# cSrc = cSrc (Homo sapiens, UniProt P12931); assay: Src kinase assay (ELISA or isotope format); assay type: biochemical
# Protocol: The peptide substrates used in Src and Lck assays were biotin-aminohexyl-EEIYGEF-NH2 (Src) and biotin-aminohexyl-[…]-NH2 (Lck). The src and Ick proteins were purified to homogeneity from a baculovirus expression system and preactivated before adding to assay mixtures. The maximum activation was achieved by incubating concentrated enzyme ([…]) on ice for 40 min in the presence of 1 mM ATP and 10 mM MgCl2 in 100 mM HEPES, pH 7.5. The activated enzyme was diluted to 2 nM into a […] reaction mixture containing 100 mM HEPES, pH 7.5, 5 mM ATP, 10 mM MgCl2, 2 mM peptide, 0.05 mg/mL BSA, and an inhibitor at varying concentrations and with or without 8 mCi/mL [γ-^33P]ATP dependent upon the method of analysis for the extent of reaction. The controls were reactions in the presence (negative controls) or absence (positive controls) of 50 mM EDTA. Reactions were allowed to proceed for 30 min at room temperature and quenched with addition of EDTA to 50 mM in […]. The extent of reactions was analyzed in one of the two ways: an Elisa-based and a radioactive isotope-based. The quenched samples ([…]) were transferred to a neutravidin coated plate (Perice) and incubated at room temperature for 40 min to allow biotinylated peptide to bind to neutravidin. […] The plate was read at A625 in a plate reader. […] The plate was sealed and counted in a micro-b-counter (Wallac). […]
# VEGFR-2 = VEGFR-2 (Homo sapiens, UniProt P35968); assay: VEGFR-2 kinase assay; assay type: biochemical; conditions: read-out: VEGFR2 (IC50)
# Protocol: The kinase domain of the enzyme was purified to homogeneity from a baculovirus expression system. The enzyme was preactivated on ice for 15 min in the presence of 100 μM ATP and 20 mM MgCl2, and stored at −80° C. until needed for assay. The activated enzyme was diluted to 0.4 nM into a 60 μl reaction containing 100 mM HEPES, pH 7.5, 5 μM ATP, 10 mM MgCl2, 5 μM peptide, 0.1 mM DTT, 0.05 mg/ml BSA, and an inhibitor at varying concentrations. The controls were reactions in the presence (negative controls) or absence (positive controls) of 50 mM EDTA. Reactions were incubated for 30 min at room temperature, and then quenched by the addition of EDTA to 60 mM in 210 μl. The quenched samples (190 μl) were transferred to a neutravidin-coated plate (Pierce) and incubated at room temperature for 40 min to allow biotinylated peptide to bind to the neutravidin. The unbound components of the reaction were removed by washing with a plate washer, then 200 μl HRP-PY20 anti-phosphotyrosine antibody conjugate was added to each well. After incubation for 40 min, the plate was washed to remove any unbound anitbody. A HRP substrate, K-blue (Neogen) was added and the reaction was quenched with Red Stop (Neogen) after 20 min. The absorbance of the wells was read at A650 in a plate reader. IC50 values were obtained by fitting raw data to A650=VMAX*(1−[I]/IC50+[I])))+b, where b is background.
# UL97 = target: T1, UL97 (Human cytomegalovirus, UniProt P16788); assay: UL97 protein kinase assay (32P transfer to histone H2B); assay type: biochemical
# T1 construct: GST; made in house; host or cells: sf9 cells (baculovirus vector)
# Protocol: UL97 was produced as a GST fusion protein from a baculovirus vector expressed in sf9 cells as described by He (He, et al., Journal of Virology 1997, 71, 405–11). UL97 was assayed as a protein kinase using ^32P transfer from ATP to histone H2B with detection of radiolabeled histone bound to phosphocellulose. Assay mixes for testing inhibitors of UL97 activity contained 2 mM [γ^32P]-ATP, 15 mM histone H2B, 50 mM sodiumCHES, pH 9.5, 1 M NaCl, 2 mM dithiothreitol and 10 mM MgCl2. Inhibitors were dissolved in diluted DMSO to give a final DMSO concentration in the reaction of 1% DMSO. After incubation at 20° C., the reactions were terminated by addition of 10 volumes of 75 mM phosphoric acid, 30 mM ATP, 1 mM EDTA, then were spotted onto phosphocellulose filters and washed four times with 75 mM phosphoric acid. Radioactivity was determined by liquid scintillation counting.
# VEGFR-2, sequence (P35968 834-1162 limits assumed): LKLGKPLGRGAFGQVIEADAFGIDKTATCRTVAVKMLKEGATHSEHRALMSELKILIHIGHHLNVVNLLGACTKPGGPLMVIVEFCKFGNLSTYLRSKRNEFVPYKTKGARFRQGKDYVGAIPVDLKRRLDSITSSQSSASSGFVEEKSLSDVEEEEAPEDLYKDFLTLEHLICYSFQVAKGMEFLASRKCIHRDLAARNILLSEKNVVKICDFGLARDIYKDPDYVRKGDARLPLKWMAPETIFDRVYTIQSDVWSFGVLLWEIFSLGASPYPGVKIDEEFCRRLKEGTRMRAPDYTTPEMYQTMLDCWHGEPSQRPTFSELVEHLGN
# cSrc, sequence (P12931 whole entry): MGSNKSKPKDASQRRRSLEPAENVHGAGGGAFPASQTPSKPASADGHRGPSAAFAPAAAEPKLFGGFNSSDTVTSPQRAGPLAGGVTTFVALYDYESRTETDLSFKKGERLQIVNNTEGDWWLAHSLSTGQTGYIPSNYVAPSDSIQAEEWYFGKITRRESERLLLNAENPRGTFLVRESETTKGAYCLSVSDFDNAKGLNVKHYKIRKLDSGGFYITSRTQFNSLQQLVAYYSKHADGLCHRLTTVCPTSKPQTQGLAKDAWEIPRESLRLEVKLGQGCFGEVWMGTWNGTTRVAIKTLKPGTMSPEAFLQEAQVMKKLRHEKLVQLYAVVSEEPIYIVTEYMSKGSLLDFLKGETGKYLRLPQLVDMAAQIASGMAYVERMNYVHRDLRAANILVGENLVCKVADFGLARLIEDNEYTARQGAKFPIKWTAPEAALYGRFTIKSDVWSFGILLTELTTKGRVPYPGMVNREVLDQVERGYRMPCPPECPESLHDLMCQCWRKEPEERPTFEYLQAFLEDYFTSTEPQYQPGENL
# T1 sequence (P16788 whole entry): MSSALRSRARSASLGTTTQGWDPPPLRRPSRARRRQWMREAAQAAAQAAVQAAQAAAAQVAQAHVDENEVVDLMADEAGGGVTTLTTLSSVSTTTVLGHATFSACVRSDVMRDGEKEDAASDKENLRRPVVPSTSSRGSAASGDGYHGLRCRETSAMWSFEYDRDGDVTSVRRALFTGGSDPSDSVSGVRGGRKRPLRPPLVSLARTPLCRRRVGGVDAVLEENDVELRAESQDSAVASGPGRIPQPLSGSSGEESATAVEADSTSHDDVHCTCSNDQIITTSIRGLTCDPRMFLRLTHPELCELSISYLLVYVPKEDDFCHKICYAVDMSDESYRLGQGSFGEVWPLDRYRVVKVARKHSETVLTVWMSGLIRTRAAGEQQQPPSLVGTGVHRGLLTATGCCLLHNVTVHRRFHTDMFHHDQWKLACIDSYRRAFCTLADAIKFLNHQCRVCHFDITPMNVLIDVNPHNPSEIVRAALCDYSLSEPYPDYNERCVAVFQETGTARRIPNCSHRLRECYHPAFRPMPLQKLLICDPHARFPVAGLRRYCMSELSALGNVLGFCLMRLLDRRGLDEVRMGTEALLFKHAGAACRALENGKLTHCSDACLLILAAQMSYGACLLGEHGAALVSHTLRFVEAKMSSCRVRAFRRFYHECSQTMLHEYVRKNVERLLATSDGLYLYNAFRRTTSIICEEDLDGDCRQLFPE
SMILES,IC50 [1] [nM],IC50 (MES/SA cells) [nM],IC50 (cSrc) [nM],IC50 (VEGFR-2) [nM],IC50 (UL97) [nM]
COC(=O)c1ccc2c(c1)/C(=C/Nc1ccc(S(N)(=O)=O)cc1)C(=O)N2 [Example 27],1100 to 5000,,,,
NS(=O)(=O)c1ccc(NN=C2C(=O)Nc3ccc(-c4cnco4)cc32)cc1 [Example 36],,100 to 500,> 100,> 100,11 to 50
